Assay results from ChEMBL document CHEMBL5113402, “Inhibition of cytochrome P450 monooxygenase-catalyzed oxylipin formation by flavonoids: Evaluation of structure-activity relationship towards CYP4F2-selective inhibitors” (Eur J Med Chem, 2022).
Values after ≈ are worked out from the molar mass of the structure shown.

Tests used:
[1] = biological target: CYP450 (20-HETE formation) (Homo sapiens, UniProt P04798+P05177+P05181+P08684+P10632+P10635+P11509+P11712+P13584+P20813+P20815+P20853+P24462+P24903+P33260+P33261+P51589+P78329+P98187+Q02928+Q08477+Q16678+Q16696+Q5TCH4+Q6VVX0+Q7Z449+Q8TAV3+Q96SQ9+Q9HB55); assay: Inhibition of CYP450 in human liver microsomes assessed as inhibition of 20-HETE formation at 10 uM in presence of arachidonic acid and NADPH by multi-enzyme assay based LC-MS/MS analysis relative to control; type: ADME, Microsome; conditions: probe arachidonic acid
Homo sapiens = species on record: Homo sapiens; assay: Selectivity index, log ratio of Inhibition of CYP450 in human liver microsomes assessed as inhibition of EpETrE formation in presence of arachidonic acid to Inhibition of CYP450 in human liver microsomes assessed as inhibition of 20-HETE formation in presence of arachidonic acid
[2] = biological target: CYP450 (EpETrE formation) (Homo sapiens, UniProt P04798+P05177+P05181+P08684+P10632+P10635+P11509+P11712+P13584+P20813+P20815+P20853+P24462+P24903+P33260+P33261+P51589+P78329+P98187+Q02928+Q08477+Q16678+Q16696+Q5TCH4+Q6VVX0+Q7Z449+Q8TAV3+Q96SQ9+Q9HB55); assay: Inhibition of CYP450 in human liver microsomes assessed as inhibition of EpETrE formation at 10 uM in presence of arachidonic acid and NADPH by multi-enzyme assay based LC-MS/MS analysis relative to control; type: ADME, Microsome; conditions: probe arachidonic acid
Cytochrome P450 4F2 = biological target: T1, Cytochrome P450 4F2 (Homo sapiens, UniProt P78329); assay: Inhibition of recombinant CYP4F2 (unknown origin) incubated for 5 to 15 mins in presence of NADPH by LC-MS/MS analysis; type: ADME
T1 sequence (P78329 whole entry): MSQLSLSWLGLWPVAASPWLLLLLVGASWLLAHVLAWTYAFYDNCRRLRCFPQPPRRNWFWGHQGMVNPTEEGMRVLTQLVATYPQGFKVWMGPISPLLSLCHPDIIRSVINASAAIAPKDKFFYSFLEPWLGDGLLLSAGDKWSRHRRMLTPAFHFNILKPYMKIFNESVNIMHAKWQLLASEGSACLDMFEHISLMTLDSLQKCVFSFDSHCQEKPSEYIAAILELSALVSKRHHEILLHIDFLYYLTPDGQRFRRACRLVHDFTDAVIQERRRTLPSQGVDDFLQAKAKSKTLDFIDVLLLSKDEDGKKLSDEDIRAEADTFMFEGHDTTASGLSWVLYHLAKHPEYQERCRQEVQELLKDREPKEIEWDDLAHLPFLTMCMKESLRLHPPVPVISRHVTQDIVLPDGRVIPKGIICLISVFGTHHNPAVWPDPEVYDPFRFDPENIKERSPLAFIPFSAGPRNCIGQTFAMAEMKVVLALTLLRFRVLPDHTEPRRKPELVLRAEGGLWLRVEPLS

[3] = Solubility of the compound in phospahte-buffered saline buffer at pH 7.4 by shake flask method; type: physicochemical; conditions: phosphate-buffered saline

| Structure (SMILES) | inhibition at 10 µM [1] | log(ratio) (Homo sapiens) | inhibition at 10 µM [2] | IC50 (Cytochrome P450 4F2) | solubility thermodynamic [3] |
| --- | --- | --- | --- | --- | --- |
| O=c1cc(-c2ccccc2)oc2ccc(O)cc12 [6-HYDROXYFLAVONE] | < 15% | -0.01 | 15% |  |  |
| O=c1cc(-c2ccccc2O)oc2ccccc12 | < 15% | -0.29 | 24% |  |  |
| COc1ccc2oc(-c3ccccc3)cc(=O)c2c1 [6-METHOXYFLAVONE] | < 15% | -0.05 | 16% |  |  |
| COc1ccc(-c2cc(=O)c3ccccc3o2)cc1 [4'-METHOXYFLAVONE] | 27% | 0.13 | 20% |  |  |
| O=c1cc(-c2ccccc2)oc2ccccc12 [FLAVONE] | < 15% | 0 | < 15% |  |  |
| COc1ccc2c(=O)cc(-c3ccccc3)oc2c1 [7-METHOXYFLAVONE] | < 15% |  | 50% |  |  |
| COc1ccc2oc(-c3ccc(OC)c(OC)c3)cc(=O)c2c1 | < 15% | 0.07 | < 15% |  |  |
| COc1cc2oc(-c3ccccc3)cc(=O)c2c(OC)c1OC [BAICALEIN TRIMETHYL ETHER] | < 15% | -0.09 | < 15% |  |  |
| O=c1cc(-c2ccc(O)cc2)oc2ccccc12 | < 15% | 0.05 | < 15% |  |  |
| CC(=O)OC[C@@]12CC[C@@]3(C)[C@H]4C(=CC[C@]3(C)[C@H]1[C@H](O)C[C@H]2C(C)C)[C@@]1(C)CCC(=O)C(C)(C)[C@@H]1C[C@@H]4O [RUBIARBONONE C] |  |  |  | 4.2 µM |  |
| COc1ccc(-c2cc(=O)c3ccccc3o2)cc1OC [3',4'-DIMETHOXYFLAVONE] | 18% | 0.08 | < 15% |  |  |
| Cc1ccc(-c2cc(=O)c3ccccc3o2)cc1 | 32% | 0.07 | 26% |  |  |
| COc1ccc(-c2coc3ccccc3c2=O)cc1 | < 15% | 0.18 | < 15% |  |  |
| O=c1cc(-c2ccc(Br)cc2)oc2ccccc12 | 35% | 0.4 | < 15% |  |  |
| COc1ccc(-c2coc3cc(O)cc(O)c3c2=O)cc1 [BIOCHANIN] | 25% | 0.25 | < 15% |  |  |
| COc1ccccc1-c1cc(=O)c2ccccc2o1 | < 15% | -0.4 | 37% |  |  |
| O=c1cc(-c2ccccc2)oc2cc(O)c(O)c(O)c12 [BAICALEIN] | < 15% | -0.36 | 32% |  |  |
| O=c1cc(-c2ccc(Br)cc2)oc2ccc(O)cc12 | < 15% | 0 | < 15% |  |  |
| COc1cccc(-c2cc(=O)c3cc(OC)ccc3o2)c1 [6,3'-DIMETHOXYFLAVONE] | < 15% | -0.09 | < 15% |  |  |
| O=c1c(-c2ccccc2)coc2ccccc12 [ISOFLAVONE] | < 15% | 0.19 | < 15% |  |  |
| O=c1cc(-c2ccc(O)c(O)c2)oc2ccccc12 | 32% | 0.17 | 19% |  |  |
| COc1ccc2oc(-c3ccc(Br)cc3)cc(=O)c2c1 | 17% | 0.16 | < 15% |  |  |
| O=c1c(-c2ccc(O)cc2)coc2cc(O)cc(O)c12 [GENISTEIN] | 39% | 0.49 | < 15% |  |  |
| COc1cccc(-c2coc3ccccc3c2=O)c1 | < 15% | 0 | < 15% |  |  |
| COc1ccc(-c2coc3ccccc3c2=O)cc1OC | 27% | 0.22 | < 15% |  |  |
| COc1ccc2oc(-c3ccc(C(F)(F)F)cc3)cc(=O)c2c1 | 55% | 0.59 | < 15% |  | 1 µM (≈ 0.32 µg/mL) |
| O=c1cc(-c2ccc(O)c(O)c2)oc2ccc(O)cc12 | 26% | 0.29 | < 15% |  |  |
| COc1ccc(-c2cc(=O)c3cc(OC)ccc3o2)cc1 [6,4'-DIMETHOXYFLAVONE] | < 15% | 0 | < 15% |  |  |
| COc1ccccc1-c1coc2ccccc2c1=O | < 15% | -0.15 | < 15% |  |  |
| O=c1cc(-c2ccccc2)oc2cc(O)ccc12 [7-HYDROXYFLAVONE] | < 15% |  | 35% |  |  |
